The numbers were not newly measured in US6399797B1, “Vitamin D analogues” (Leo Pharmaceutical Products Ltd. A/S (Løvens kemiske Fabrik …, priority 1997, dated 2002), which cites them from elsewhere.

For data set [1], the system named is experimental animal models. The settings on record: systemically administered.
In data set [2] the test system is transplanted islets in diabetic NOD mice. The conditions noted are these: alone or in combination with cyclosporin A.
For data set [3], the system named is cardiac and small bowel grafts. The settings on record: rats.

Take `C=C1/C(=C\C=C2/CCC[C@]3(C)[C@@H]([C@@H](C)OCCCC(O)(CC)CC)CC[C@@H]23)C[C@@H](O)C[C@@H]1O` [KH 1060]: in data set [1], the “immunosuppressive activities in vivo” value was “have shown immunosuppressive activities in vivo”. In addition, the “prevention of autoimmune destruction of transplanted islets” value in data set [2] was “prevent autoimmune destruction of transplanted islets”.
Turning to `C=C1/C(=C\C=C2/CCC[C@]3(C)[C@@H]([C@H](C)CCCC(C)(C)O)CC[C@@H]23)C[C@@H](O)C[C@@H]1O` [MC 1288], the “immunosuppressive activities in vivo” value in data set [1] is recorded as “have shown immunosuppressive activities in vivo”. For the same molecule, in data set [3], the “survival of cardiac and small bowel grafts” value is “able to prolong survival of cardiac and small bowel grafts”.
